Each block holds one molecule with its values, some of them ahead of it.
Assays:
[1] = oral administration of wet pulverized formulations to rats, AUC of concentration in blood; assay type: in vivo, Wister male rats; conditions: rat, plasma, 50 mg/kg, 50 mg/5 ml/kg, compound 40 w/v%, HCO-60 10 w/v%
Description: Each of four wet pulverized formulations having different particle sizes [composition: Compound No. 3 (40 w/v%) and HCO-60 (10 w/v%)] was forcibly orally administered by an oral sonde to a group of 5 Wister male rats (body weight: 200 g) starved for 18 hours (dose: 50 mg/5 ml/kg). Then, blood (0.3 ml) was periodically sampled with heparin from the jugular vein. The blood thus obtained was subjected to separation of the plasma and removal of proteins by using acetonitrile, and then Compound No. 3 was quantitatively analyzed by a high speed liquid chromatography using a reversed phase column (Nova Pak C18, 5μ, 3.9 mm in diameter×150 mm, Nihon Waters), and the curve of the concentration in blood was prepared. From the curve of the concentration in blood, the area below the curve was obtained by using a trapezoid formula and presented as AUC (Area Under the Curve).

[2] = average particle size of pulverized benzoyl urea compound by light scattering (Autosizer Model 700); assay type: physicochemical; conditions: for average particle size in the liquid formulation: 3000 rpm 45 minutes, autoclaved
Description: Compound No. 3, No. 5 or No. 6 (4 w/v%) as the benzoyl urea compound and polyoxyethylene hardened caster oil 60 (HCO-60, manufactured by Nikko Chemical K.K., 10 w/v%) as a dispersant were suspended in water, and after an addition of glass beads (from 1 to 1.4 mm in diameter) in an amount of the same volume, subjected to rotary pulverization by Dyno-mill for 20 minutes.
(§1) The average particle size was measured in such a manner that the benzoyl urea compound was diluted to a concentration of 20 μg/ml and the average particle size was measured by a light scattering method (Autosizer, Model 700, manufactured by Maruburn Company) (the same applies hereinafter).
Compound No. 3 (4 w/v%) and the following dispersant (10 w/v%) were suspended in water, and after an addition of glass beads (from 1 to 1.4 mm in diameter) in an amount of the same volume, subjected to rotary pulverization by Dyno-mill for 45 minutes. As the dispersant, polyoxyethylene hardened caster oil 60 (HCO-60, manufactured by Nikko Chemical K.K.), polyoxyethylene (160) polyoxypropylene (30) glycol (F68, manufactured by Asahi Denka Kogyo K.K.), a decaglycerol fatty acid ester (Decagly.ester, Nikko Chemical K.K.) or polysolbate 80 (Tween 80, manufactured by Nakarai Kagaku K.K.) was employed.
Compound No. 3 (from 10 to 40 w/v%), HCO-60 (5 w/v%) as a dispersant and glass beads (from 1 to 1.5 mm in diameter) were subjected to rotary pulverization by Dyno-mill for pulverization time of 30 minutes. Then, the average particle size of the benzoyl urea compound was measured.
Compound No. 3 (20 w/v%), HCO-60 (from 2.5 to 10 w/v%) as the dispersant and glass beads (from 1 to 1.5 mm in diameter) were subjected to rotary pulverization by Dyno-mill for a pulverization time of 30 minutes. Then, the average particle size of the benzoyl urea compound was measured.
Compound No. 3 (40 w/v%), HCO-60 (5 w/v%) as the dispersant and glass beads (three types having a diameter of from 0.25 to 0.5, from 0.5 to 0.75 and from 1 to 1.5 mm, respectively) were subjected to rotary pulverization by Dyno-mill for a pulverization time of 30 minutes. Then, the average particle size of the benzoyl urea compound was measured.
Compound No. 3 (40 w/v%), HCO-60 (5 w/v%) as the dispersant and glass beads (from 0.25 to 0.5 mm in diameter), were subjected to rotary pulverization by Dyno-mill for a pulverization time of from 10 to 60 minutes. Then, the average particle size of the benzoyl urea compound was measured.
(§2) Compound No. 3 (20 g) was suspended in 50 ml of a 5 w/v% HCO-60 aqueous solution, and the suspension was wet pulverized (3000 rpm for 45 minutes) by Dyno-mill by using 50 g of glass beads (from 0.25 to 0.5 mm in diameter). After the completion of the pulverization, glass beads were removed by sieving, to obtain a wet pulverized formulation of Compound No. 3.
(§3) The wet pulverized formulation thus obtained was sterilized in an autoclave to obtain a liquid formulation of a final form. The average particle size of Compound No. 3 in this liquid formulation was 0.68 μm. Instead of the sterilization in an autoclave, it is possible to employ filtration to remove bacteria. If necessary, a sweetening agent, a perfume, etc. may be added.
as §2, with “(15” for “(20”, “decaglycerol monolaurate (Decagline 1 L, manufactured by Nikko Chemical K.K.)” for “HCO-60”
as §3, with “0.75” for “0.68”, “added. […]” for “added.”

[3] = stability of particles in the liquid composition on storage at room temperature; assay type: physicochemical; conditions: compound 40 w/v%, HCO-60 10 w/v%
Description: as §1
The stability of particles in the liquid composition of the benzoyl urea compound was investigated.
Namely, a wet pulverization formulation comprising compound No. 3 (40 w/v%) and HCO-60 (10 w/v%) was stored at room temperature, whereby the stability of the particles was investigated.

[4] = compound 4 w/v%, HCO-60 10 w/v%, glass beads 1 to 1.4 mm, Dyno-mill 20 minutes

AUC(0-t) at 24 h ([1]; particle size 0.31 μm): 11600 ± 2300 ng·h/mL
AUC(0-t) at 24 h ([1]; particle size 0.66 μm): 10000 ± 1600 ng·h/mL
AUC(0-t) at 24 h ([1]; particle size 1.5 μm): 8100 ± 1200 ng·h/mL
AUC(0-t) at 24 h ([1]; particle size 2.5 μm): 6900 ± 1400 ng·h/mL
average particle size in the liquid formulation ([2]; Example 1: 20 g in 50 ml 5 w/v% HCO-60, beads 0.25 to 0.5 mm): 0.68 μm
average particle size in the liquid formulation ([2]; Example 3: 15 g in 50 ml 5 w/v% decaglycerol monolaurate, beads 0.25 to 0.5 mm): 0.75 μm
Particle size (average) [2, 4]: 0.43 μm
Particle size (average) ([2]; diameter of beads 0.25-0.5 mm, compound 40 w/v%, HCO-60 5 w/v%, 30 minutes): 0.30 μm
Particle size (average) ([2]; diameter of beads 0.5-0.75 mm, compound 40 w/v%, HCO-60 5 w/v%, 30 minutes): 0.33 μm
Particle size (average) ([2]; diameter of beads 1-1.5 mm, compound 40 w/v%, HCO-60 5 w/v%, 30 minutes (Table 5)): 0.46 μm
Particle size (average) ([2]; dispersant Decagly.ester 10 w/v%, compound 4 w/v%, beads 1 to 1.4 mm, 45 minutes): 0.6 μm
Particle size (average) ([2]; dispersant F68 10 w/v%, compound 4 w/v%, beads 1 to 1.4 mm, 45 minutes): 0.9 μm
Particle size (average) ([2]; dispersant HCO-60 2.5 w/v%, compound 20 w/v%, beads 1 to 1.5 mm, 30 minutes): 0.54 μm
Particle size (average) ([2]; dispersant HCO-60 5 w/v%, compound 20 w/v%, beads 1 to 1.5 mm, 30 minutes (Table 4)): 0.50 μm
Particle size (average) ([2]; dispersant HCO-60 10 w/v%, compound 4 w/v%, beads 1 to 1.4 mm, 45 minutes): 0.9 μm
Particle size (average) ([2]; dispersant HCO-60 10 w/v%, compound 20 w/v%, beads 1 to 1.5 mm, 30 minutes): 0.45 μm
Particle size (average) ([2]; dispersant Tween 80 10 w/v%, compound 4 w/v%, beads 1 to 1.4 mm, 45 minutes): 0.6 μm
Particle size (average) ([2]; pulverization time 10 minutes, compound 40 w/v%, HCO-60 5 w/v%, beads 0.25 to 0.5 mm): 0.38 μm
Particle size (average) ([2]; pulverization time 20 minutes, compound 40 w/v%, HCO-60 5 w/v%, beads 0.25 to 0.5 mm): 0.33 μm
Particle size (average) ([2]; pulverization time 30 minutes, compound 40 w/v%, HCO-60 5 w/v%, beads 0.25 to 0.5 mm (Table 6)): 0.29 μm
Particle size (average) ([2]; pulverization time 40 minutes, compound 40 w/v%, HCO-60 5 w/v%, beads 0.25 to 0.5 mm): 0.27 μm
Particle size (average) ([2]; pulverization time 50 minutes, compound 40 w/v%, HCO-60 5 w/v%, beads 0.25 to 0.5 mm): 0.26 μm
Particle size (average) ([2]; pulverization time 60 minutes, compound 40 w/v%, HCO-60 5 w/v%, beads 0.25 to 0.5 mm): 0.26 μm
Particle size (average) ([2]; sample 10 w/v%, HCO-60 5 w/v%, beads 1 to 1.5 mm, 30 minutes): 0.56 μm
Particle size (average) ([2]; sample 20 w/v%, HCO-60 5 w/v%, beads 1 to 1.5 mm, 30 minutes): 0.50 μm
Particle size (average) ([2]; sample 40 w/v%, HCO-60 5 w/v%, beads 1 to 1.5 mm, 30 minutes): 0.46 μm
Particle size on storage ([3]; 0 months): 0.7 μm
Particle size on storage ([3]; 1 month): 0.8 μm
Particle size on storage ([3]; 3 months): 1.3 μm
SMILES: O=C(NC(=O)c1ccccc1[N+](=O)[O-])Nc1ccc(Oc2ncc(Br)cn2)c(Cl)c1 [Compound No. 3]

Particle size (average) [2, 4]: 1.13 μm
SMILES: O=C(NC(=O)c1ccccc1[N+](=O)[O-])Nc1ccc(Oc2ncc(Cl)cn2)c(C(F)(F)F)c1 [Compound No. 5]

SMILES: O=C(NC(=O)c1ccccc1[N+](=O)[O-])Nc1ccc(Oc2ncc(Cl)cn2)c([N+](=O)[O-])c1 [Compound No. 6]
Particle size (average) [2, 4]: 0.72 μm

Source: patent US4904668A, “Benzoyl urea compound” (Ishihara Sangyo Kaisha Ltd., priority 1986, dated 1990)
